US6818620B2, “Synthetic compounds and compositions with enhanced cell binding” (The Regents of the University of California, priority 1991, dated 2004)
Entries after “also recorded” stand apart in the source; their conditions may differ. No end group written: not given here.

Tests used:
cells [1] = assay: Relative cell-binding activity of synthetic peptides (relative to the SEQ ID NO:1 peptide / P-15, or to collagen); assay type: cell-based
[2] = test system: fibroblast cells from 19-week fetal human dermis; assay: Binding of fibroblast cells to collagen- or peptide-coated glass coverslips and dishes (Example 1); assay type: cell-based; conditions: for Concentration of Cells (Relative Binding of Cells After 15 Minutes): coverslips coated with 50 μl of 1 mg/ml solution, approximately 100,000 fibroblast cells
Experimental: All media and supplies for tissue culture were obtained from University of California San Francisco Tissue Culture Facility. Cycloheximide was purchased from Sigma Biochemicals, St. Louis, Mo. Rat tail tendon collagen was purified to homogeneity and characterized in our laboratory using published methods. Tissue culture dishes (35 mm diameter, Falcon Plastics) were coated with collagen dissolved in 0.01 N acetic acid to a concentration of 10 μg/ml. The dishes were allowed to air dry overnight under ultraviolet light to maintain sterility. Primary cultures of fibroblast cells from 19-week fetal human dermis were obtained. The cultures were maintained in Eagles minimum essential medium with Earle's salts supplemented with 10% fetal bovine serum. All cells used were in the second passage and were obtained from confluent cultures. Prior to release and dispersion with trypsin, the cells were rinsed three times with phosphate buffered saline. The cell layers were exposed for two minutes to 0.05% trypsin, 0.02% NaEDTA in phosphate buffered saline, and rinsed with serum free medium. Glass coverslips (12-15) were washed in a cleaning solution overnight then rinsed with large amounts of distilled water. The coverslips were then sterilized by drying between sheets of filter paper in an oven at high temperature. The coverslips were then placed in small culture dishes under sterile conditions. A solution of collagen in acetic acid (1 mg/ml) was prepared. Fifty microliters of solution was placed on each of four coverslips, which were then dried in air overnight. A solution of the peptide in acetic acid (1 mg/ml) was prepared. Four coverslips were treated with 50 μl of the solution and then dried as described above. Approximately 100,000 fibroblast cells were pipetted onto four control coverslips and dishes, four collagen coated coverslips and dishes, and four peptide coated coverslips and dishes. After 15 minutes, excess medium containing floating cells was removed from each dish. Fresh medium was added and the dishes were examined under a microscope to determine the extent of binding of cells to the respective coverslips. If the number of bound cells appeared to be different, an assay for DNA in the cells attached to each coverslip was performed. The cells were counted using a hemocytometer.

fibroblast cells = assay: Fibroblast growth and migration into agarose gel containing peptide (Example 3); assay type: cell-based; conditions: 100 μg peptide in agarose gel (2 mg/ml); 100,000-200,000 fibroblast cells; 72 hours after plating
Experimental: Referring to FIGS. 1 and 2, a prior art agarose gel was prepared with an agarose concentration of 2 mg/ml and between 100,000-200,000 fibroblast cells were placed on the gel surface. The agarose gel had been prepared with a suitable fibroblast cell growth medium and the cells placed on the agarose gel were treated with growth medium; however, the cells died within 48 hours, as is illustrated by the FIG. 1 photograph. […] The fibroblast population continued to grow rapidly until cells filled the lattice of the gel.
Different concentrations of the inventive peptides in hydrogels were studied. […] Different types of cells appear to prefer different inventive peptide concentrations in hydrogels, probably due to differences in receptor densities, but in general about 100 μg/ml will be effective.

[3] = test system: peripheral blood CD4 and CD8 lymphocytes; assay: Inhibition of T-cell binding to collagen-coated dishes (Example 7); assay type: cell-based; conditions: rat tail type I collagen-coated dishes, serum free medium
Experimental: Cultured T-cells were incubated in collagen-coated dishes in serum free medium, in the presence and absence of inventive peptides. […] Inhibition was examined at several concentrations and times. Maximal inhibition by the peptides occurred at 30 minutes at 37 ? C at a concentration of 35 μM. Thus, the molecular site on type I collagen involved in the interaction with T-cells appears to be the same as involved in fibroblast binding.

dermal fibroblasts = assay: Induction of metalloproteinases and osteodifferentiation in dermal fibroblasts; assay type: cell-based
Description: This activity is useful for resolving fibrosis. […] This is confirmed by the induction of the following genes: type I collagen, collagenase, alkaline phosphatase, osteonectin, transforming growth factor β (TGF-β), and osteogenin (bone morphogenic protein, […]). These studies confirm that the inventive peptides mimic the biological activity of collagen by binding to specific receptors and inducing biochemical processes characteristic of those induced by collagen itself.

[4] = test system: binding of cells to collagen; assay: Inhibition of cell binding (attachment) to collagen substrates by peptides added to the medium (Example 2); assay type: cell-based, human; conditions: for % Inhibition of Cell Attachment / % of Maximal Cell Attachment: collagen substrates; for effect on the binding of cells to collagen (in words): equimolar concentrations of several peptides
Experimental: All media and supplies for tissue culture were obtained from University of California San Francisco Tissue Culture Facility. Cycloheximide was purchased from Sigma Biochemicals, St. Louis, Mo. Rat tail tendon collagen was purified to homogeneity and characterized in our laboratory using published methods. Tissue culture dishes (35 mm diameter, Falcon Plastics) were coated with collagen dissolved in 0.01 N acetic acid to a concentration of 10 μg/ml. The dishes were allowed to air dry overnight under ultraviolet light to maintain sterility.
Primary cultures of fibroblast cells from 19-week fetal human dermis were obtained. The cultures were maintained in Eagles minimum essential medium with Earle's salts supplemented with 10% fetal bovine serum. All cells used were in the second passage and were obtained from confluent cultures. Prior to release and dispersion with trypsin, the cells were rinsed three times with phosphate buffered saline. The cell layers were exposed for two minutes to 0.05% trypsin, 0.02% NaEDTA in phosphate buffered saline, and rinsed with serum free medium.
Collagen related, but non-inventive peptides, (Pro-Pro-Gly)10 and (Pro-Hyp-Gly)10 (wherein Hyp is hydroxy-proline), were obtained from Peninsula Laboratory, Belmont, Calif. Polyproline was purchased from Sigma Biochemicals, St. Louis, Mo. Dynorphin 1-13 and human preangiotensinogen 1-14 were purchased from Bachem, Torrance, Calif. Three different fibronectin related peptide sequences were also obtained from Bachem and were used without further analysis.
The inventive peptide (SEQ ID NO:1) was synthesized as described in Example 1 and the same procedures and conditions of Example 1 were used herein.
In this experiment to examine the effect of various additives on binding, the additives were added in the medium containing the cells before being transferred to the dishes for the binding assay. It was observed that cell binding to collagen proceeds rapidly in the beginning of the experiment but then slows down after approximately 30 minutes and approximately 70-80% of the cell binding in the absence of a peptide occurs during this time. The effect of the peptide inhibitor on the initial rate of the binding reaction between cells and collagen was examined. The effects of various conditions on cell binding to collagen after 30 minutes were usually compounded.
All peptides used had small inhibitory effects on cell binding, although none reached the level of inhibition observed with the inventive peptide. […] Under the conditions of these experiments, polyproline and (PPG)10 exist as single chains in polyproline conformation whereas (P-Hyp-G)10 is a triple helix. The behavior of dynorphin 1-13 and preangio-tensinogen 1-14, peptides similar in size to the inventive peptide, on cell binding was also examined.

cells [5] = assay: Relative cell-binding activity of synthetic peptides (relative to the SEQ ID NO:1 peptide / P-15, or to collagen); assay type: cell-based; conditions: for Relative Cell-Binding Activity: relative to the inventive peptide illustrated in Examples 1 and 2 (SEQ ID NO:1)
Experimental: Several more synthetic peptides were prepared and tested for cell binding activity (relative to the SEQ ID NO:1 peptide) all of which have the β-bend feature and which have excellent cell binding activity.
The relative efficiencies of some synthetic peptides of this invention for cell-binding activity (relative to the inventive peptide illustrated in Examples 1 and 2) are set out in Table 4.

Substance: Gly-Ile-Ala-Gly (FGIAGF; OTHER INFORMATION: synthetic peptide) [SEQ ID NO:9]
- cell binding enhancement with respect to collagen (in words) (cells [1]): not significantly enhanced with respect to collagen

Substance: GTPGPQGIAGQRGVV [SEQ ID NO:1]
- increase in cell binding over collagen-coated dishes ([2]; 15 minutes): 40%
- increase in cell binding over the control (no collagen or peptide) dishes ([2]; 15 minutes): 60%
- Concentration of Cells (Relative Binding of Cells After 15 Minutes) ([2]; 15 minutes): 11.05
- potency relative to collagen in binding cells to glass or to polystyrene ([2]; various other similar studies): at least twice as potent as collagen
- fibroblast growth and migration into agarose gel (fibroblast cells): the cells not only grew, but actually migrated into the gel itself
- inhibition of interactions between T-cells and collagen [3]: markedly inhibited
- induction of metalloproteinases (dermal fibroblasts; dermal fibroblasts): induces metalloproteinases
- osteodifferentiation (induction of type I collagen, collagenase, alkaline phosphatase, osteonectin, TGF-β, BMP-7 genes) (dermal fibroblasts; in composites with hydroxyapatite, non-osteoblastic (dermal) fibroblasts): causes osteodifferentiation
- % Inhibition of Cell Attachment ([4]; peptide 7.2 × 10^−6M): 85%
- % of Maximal Cell Attachment ([4]; peptide 7.2 × 10^−6M): 15%
- % Inhibition of Cell Attachment ([4]; peptide 36 × 10^−6M): 88%
- % of Maximal Cell Attachment ([4]; peptide 36 × 10^−6M): 12%
- effect on the binding of cells to collagen (in words) [4]: potent inhibitor of the binding of cells to collagen

Substance: QGIAGQ [SEQ ID NO:3]
- inhibition of interactions between T-cells and collagen [3]: markedly inhibited
- cell binding activity compared with P-15 region / SEQ ID NO:1 peptide (in words) (cells [5]): as active, or more active, than a peptide having the entire P-15 region
- Relative Cell-Binding Activity (cells [5]): 120

Substance: Gln-Gly-Ile-Ala-Gly (QGIAG; OTHER INFORMATION: synthetic peptide) [SEQ ID NO:8]
- cell-binding activity (relative to the SEQ ID NO:1 peptide) (cells [5]): 42%
- cell binding enhancement with respect to collagen (in words) (cells [1]): slightly enhanced with respect to collagen, but not significantly enhanced; also recorded: not significantly enhanced with respect to collagen

Substance: Collagen: Rat tail tendon collagen purified to homogeneity [reference compound]
- Concentration of Cells (Relative Binding of Cells After 15 Minutes) ([2]; 15 minutes): 8.59

Substance: Dynorphin 1-13 (YGGFLRRIRPKLK)
- % Inhibition of Cell Attachment ([4]; peptide 35 × 10^−6M): 19%
- % of Maximal Cell Attachment ([4]; peptide 35 × 10^−6M): 81%
- effect on the binding of cells to collagen (in words) [4]: did not affect the binding of cells to collagen to the extent shown by the inventive peptide

Substance: QGIAGQR [SEQ ID NO:4]
- Relative Cell-Binding Activity (cells [5]): 60

Substance: Polyproline
- % Inhibition of Cell Attachment ([4]; peptide 1.7 × 10^−6M): 10%
- % of Maximal Cell Attachment ([4]; peptide 1.7 × 10^−6M): 90%
- effect on the binding of cells to collagen (in words) [4]: did not significantly affect the binding of cells

Substance: FGIAGF [SEQ ID NO:5]
- cell binding activity compared with P-15 region / SEQ ID NO:1 peptide (in words) (cells [5]): cell binding activity comparable to that of the peptides of SEQ ID NO: 1, 2, and 3
- Relative Cell-Binding Activity (cells [5]): 87

Substance: QGAIAQ [SEQ ID NO:7]
- Relative Cell-Binding Activity (cells [5]): 70

Substance: GPQGIAGQR [SEQ ID NO:2]
- inhibition of interactions between T-cells and collagen [3]: markedly inhibited
- cell binding activity compared with P-15 region / SEQ ID NO:1 peptide (in words) (cells [5]): equally as active as the entire P-15 region
- Relative Cell-Binding Activity (cells [5]): 100

Substance: human preangiotensinogen 1-14 (DRVYIHPFHLVIHN)
- % Inhibition of Cell Attachment ([4]; peptide 35 × 10^−6M): 12%
- % of Maximal Cell Attachment ([4]; peptide 35 × 10^−6M): 88%
- effect on the binding of cells to collagen (in words) [4]: did not affect the binding of cells to collagen to the extent shown by the inventive peptide

Substance: Gly—Ile—Ala—Gly—Gln (GIAGQ; OTHER INFORMATION: synthetic peptide) [SEQ ID NO:6]
- cell-binding activity (relative to the SEQ ID NO:1 peptide) (cells [5]): 70%
- Relative Cell-Binding Activity (cells [5]): 70
